Experimental findings from US9228097B2, “Phase change inks” (Xerox Corporation, priority 2013, dated 2016) are described below.

Molecules are shown by their SMILES.

A short description of data set [1]: Solubility testing in polyethylene wax (POLYWAX 655). It counts as physicochemical. To be noted: 1 g Solvent Black 3 or 2 g distearyl derivative in 50 g POLYWAX 655, 120° C. oil bath, stirred 3 h, then 1 h without stirring. The procedure: [drawing 41] molecular weight 892, were compared for solubility in polyethylene wax, a predominant component in phase change inks. 1 g of the Solvent Black 3 and 2 g of the distearyl derivative (because its molecular weight was about twice that of Solvent Black 3) were each dissolved in 50 g portions of POLYWAX 655 (Baker Petrolite) in 100 mL beakers equipped with magnetic stir bars. The solutions were placed in 120° C. oil baths and allowed to stir for 3 h, followed by cessation of stirring for 1 h, after which the solutions were poured into aluminum tins.

A short description of data set [2]: K-proofer print of the wax compositions on paper (darkness of the images as a sign of dissolved dye). In kind it is physicochemical. The settings on record: polyethylene wax compositions of the solubility test applied to paper with RK Print-Coat K-proofer.

Regarding `CC1(C)Nc2cccc3c(/N=N/c4ccc(/N=N/c5ccccc5)c5ccccc45)ccc(c23)N1` [Solvent Black 3, reference compound], in data set [1], the “solubility in polyethylene wax (solids on bottom of beaker)” value was “a substantial amount of the Solvent Black 3 appeared on the bottom of its beaker”.

For the compound `CCCCCCCCCCCCCCCCCC1(CCCCCCCCCCCCCCCCC)Nc2cccc3c(/N=N/c4ccc(/N=N/c5ccccc5)c5ccccc45)ccc(c23)N1` [distearyl derivative], the “solubility in polyethylene wax (solids on bottom of beaker)” value in data set [1] is “almost no solids appeared on the bottom of the beaker”. Also, the “darkness (optical density) of images versus composition containing Solvent Black 3” value in data set [2] was “considerably darker”.
